Tested on: S-180 mice (tumor model)
Conditions: mouse, in vivo, 1 day
Procedure: Method: In 1 ml of saline (0.01 M phosphate, 0.15 M NaCl, pH 7.4) were dissolved 10 mg of each sample (10 mg/ml) and the predetermined amount of each test reagent shown in Table 2. Then, 0.1 ml of each obtained solution and 0.1 ml of an aqueous solution (10 mg/ml) of Evans blue were intravenously administered to S-180 mice (tumor model) The tumor size of the mice was a diameter of 5 to 7 mm. The next day, each mouse was dissected and solid tumors were taken out therefrom. Evans blue was extracted by a conventional method and the leaked Evans blue was quantified by absorption of 560 nm (see Non-Patent Document 1).

For `O=[N+]([O-])OCC(CO[N+](=O)[O-])O[N+](=O)[O-]` [nitroglycerin], the “enhanced effect (tumor delivery)” value was ≥ 30%.

Source: US11464866B2, “Pharmaceutical composition containing macromolecular drug” (BIODYNAMIC RESEARCH FOUNDATION, priority 2016, dated 2022)
